Test results as given in article PMC8152814, “The modulatory role of sulfated and non-sulfated small molecule heparan sulfate-glycomimetics in endothelial dysfunction: absolute structural clarification, molecular docking and simulated dynamics, SAR analyses and ADMET studies” (RSC Medicinal Chemistry, 2021).

Key:
nitric oxide (NO) = test: NO release assay (DAF-2) in FFA-stressed cells; format: cell-based, human; conditions: averaged % of increase (+) or decrease (−) compared to control (FFA induced oxidatively stressed endothelial cells), n = 3
Source text: (§1) The assays focused on the production of nitric oxide (NO) and the upregulation of nitric oxide synthase (eNOS), the production of reactive oxygen species (ROS) and the activity of nicotinamide adenine dinucleotide phosphate (NADPH) oxidase (Table 2). From the hypothesised model of heparan sulfate-glycomimetic activity,[17] the glycomimetics are proposed to attenuate the binding of HGF to the cMET receptor. This disruption to MET-receptor activation is proposed to modulate intracellular phosphorylation leading to an upregulation of eNOS and increased output of extracellular NO. […] Overall, the cross examination of NO output and reduction of ROS was used to determine the therapeutic action of the triaged glycomimetics α-4, R-10, S-10 and β-5, as well as 3 non-sulfated intermediates α-2, α-3 and β-3, on free fatty acid (FFA) induced, oxidatively stressed endothelial cell cultures (Table 2).
(§2) Biological assay and AMDET experimental details […]
(§3) Preparation of FFA-albumin complexes and cell treatments
(§4) To generate the in vitro model of oxidative stress, sodium palmitate was bound to bovine serum albumin (BSA) as outlined by Chavez and Summers,S2 with modifications. Sodium palmitate (FFA) was dissolved in EtOH at 60 °C and diluted 1:100 in M199 media supplemented with 2% fatty acid-free bovine serum albumin (BSA) and incubated for 1 h at 37 °C. HepG2 cells were treated with 1 μmol/L of the synthesized HS-glycomimetics in the presence of palmitate (100 μmol/L) for 3 h or pre-treated with glycomimetics for 12 h followed by 3 h palmitate (100 μmol/L). Control cells were incubated in serum free M199 containing 2% (wt/vol) fatty acid-free BSA.
NO release assay and Quantification of ROS production
NO release was determined using diaminofluorescein-2 (DAF-2).S3 The cells were washed with PBS and incubated with L-arginine (100 μmol/L in PBS) for 5 min at 37 °C before incubation with DAF-2 (0.1 μmol/L) for 2 min, followed by the calcium ionophore calimycin (A23187, 1 μmol L) for 30 min. L-NAME (100 μmol/L), a nitric oxide inhibitor (NOS), was also added 20 min before the addition of L-arginine in some experiments to determine the involvement of NOS. DAF-2 fluorescence (arbitrary units, AU) was quantified using a microplate reader (BioTek) with excitation and emission wavelengths of 485 nm and 540 nm, respectively. The auto-fluorescence was subtracted from each value. […]
(§5) H2DCFDA, Sigma) for 30 min at 37 °C, and the level of fluorescence was determined (excitation 490 nm; emission 540 nm) using a microplate reader (BioTek).
(§6) The level of NADPH-enhanced superoxide anions (O2•−) in HepG2 homogenates was determined by lucigenin-enhanced chemiluminescence.S4 Following the various treatment conditions, cells were homogenized in a buffer (20 mmol/L H2KPO4 and 1 mmol/L EDTA supplemented with aprotinin, leuprotinin, pepstatin and PMSF). The total protein quantified using the Bicinchoninic acid (BCA) assay (Pierce Biotechnology). To 50 μg of total protein, NADPH (100 μmol/L) was added in a total volume of 500 μL, with lucigenin (5 μmol/L) and was injected automatically. Activity was determined by measuring luminescence over 200 s in a scintillation counter (Lumat LB 9507, Berthold, Germany). Basal values of NADPH oxidase activity were subtracted from the experimental values and expressed as RLU/min/μg protein […]
(§7) In situ quantification of ROS species
(§8) Superoxide dismutase (SOD) and catalase (CAT) activity assays, and in situ detection of vascular ROS content. The activity of the enzymes, SOD and CAT, was determined in cell homogenates using assay kits according to the manufacturer's instructions (Cayman; Cat No 706002 and 707002 respectively). A unit of SOD was defined as the amount of enzyme […]
(§9) Similarly, a unit of CAT was […]
(§10) defined as the amount required to form 1.0 nmol of formaldehyde per min at 25 °C.S5

[1] = system: reactive oxygen species (ROS); test: ROS production in FFA-stressed cells; format: cell-based, human; conditions: averaged % of increase (+) or decrease (−) compared to control (FFA induced oxidatively stressed endothelial cells), n = 3
Source text: as §1, §2, §3, §4
NO release assay and Quantification of ROS production […]
The auto-fluorescence was subtracted from each value. Cells were incubated with 10 μmol/L of the fluorescent probe: 2′-7′-dichlorodihydrofluorescein diacetate (CM-H2DCFDA, Sigma) for 30 min at 37 °C, and the level of fluorescence was determined (excitation 490 nm; emission 540 nm) using a microplate reader (BioTek).
as §6, §7, §8, §9
defined as the amount required to form 1.0 nmol of formaldehyde per min at 25 °C.S5 […]
HepG2 cells were incubated in serum-free DMEM containing 2% fatty acid-free BSA (control) or palmitate conjugated BSA (100 μmol/L) in the presence of HS-glycomimetics (1 or 10 μmol/L) for 24 h. The cells were incubated for 30 min in Hepes-buffered solution containing 10 μmol/L dihydroethidium (DHE), which intercalates with DNA in the presence of ROS and is detectable by fluorescence. Cells were counterstained with the nuclear stain DAPI at 0.3 μmol/L. In the following 24 h, the cell cultures were examined using a fluorescence microscope (Leica DMIRB). Sections were photographed and fluorescence was quantified using ImageJ. […]

NADPH oxidase = NADPH oxidase activity (lucigenin chemiluminescence) in cell homogenates; format: cell-based, human; parameters: concentration or dose not given beside the values; conditions: averaged % of increase (+) or decrease (−) compared to control (FFA induced oxidatively stressed endothelial cells), n = 3
Source text: as §1, §2, §3
as §4, with “BSA. […]” for “BSA.”
as §5, §6, §7, §8, §9, §10

Chemical stability = format: physicochemical
Source text: | column: α-4; β-5; R-10; S-10

| SMILES | NO production (nitric oxide (NO)) | ROS production [1] [%] | NADPH oxidase activity (NADPH oxidase) [%] | Chemical stability (Chemical stability) |
| --- | --- | --- | --- | --- |
| COC(=O)c1cc(OC[C@@H](COS(=O)(=O)[O-])OS(=O)(=O)[O-])ccc1OCC(COS(=O)(=O)[O-])OS(=O)(=O)[O-].[Na+].[Na+].[Na+].[Na+] (mixture of isomers) [α-4, sodium 3-(4-((S)-2,3-bis(sulfonatooxy)propoxy)-2-(methoxycarbonyl)phenoxy)propane-1,2-diyl bis(sulfate)] | +110% | −28 | −29 | Yes |
| O=C([O-])c1cc(OC[C@H](COS(=O)(=O)[O-])OS(=O)(=O)[O-])ccc1OCC(COS(=O)(=O)[O-])OS(=O)(=O)[O-].[Na+].[Na+].[Na+].[Na+].[Na+] (mixture of isomers) [β-5, sodium 5-((R)-2,3-bis(sulfonatooxy)propoxy)-2-(2,3-bis(sulfonatooxy)propoxy)benzoate] | +62% | −29 | −31 | Yes |
| COC(=O)c1cc(OC[C@H](COS(=O)(=O)[O-])OS(=O)(=O)[O-])ccc1OCCCCOS(=O)(=O)[O-].[Na+].[Na+].[Na+] [Compound R-10, sodium (R)-3-(3-(methoxycarbonyl)-4-(4-(sulfonatooxy)butoxy)phenoxy)propane-1,2-diyl bis(sulfate)] | +52% | −23 | −31 | Yes |
| COC(=O)c1cc(OC[C@@H](COS(=O)(=O)[O-])OS(=O)(=O)[O-])ccc1OCCCCOS(=O)(=O)[O-].[Na+].[Na+].[Na+] [Compound S-10, sodium (S)-3-(3-(methoxycarbonyl)-4-(4-(sulfonatooxy)butoxy)phenoxy)propane-1,2-diyl bis(sulfate)] | +63% | −39 | −27 | Yes |
